Legend:
A549 [1] = assay: Antiproliferative activity against human A549 cells assessed as reduction in cell growth at 8 uM incubated for 72 hrs by CCK-8 assay relative to control; type: functional; settings: A549, 72 h
HCT-116 [2] = assay: Antiproliferative activity against human HCT116 cells assessed as reduction in cell growth at 2 uM incubated for 72 hrs by CCK-8 assay relative to control; type: functional; settings: HCT-116, 72 h
A-375 [3] = assay: Antiproliferative activity against human A375 cells assessed as reduction in cell growth at 2 uM incubated for 72 hrs by CCK-8 assay relative to control; type: functional; settings: A-375, 72 h
HeLa [4] = assay: Antiproliferative activity against human HeLa cells assessed as reduction in cell growth at 8 uM incubated for 72 hrs by CCK-8 assay relative to control; type: functional
SMMC-7721 [5] = assay: Antiproliferative activity against human SMMC7721 cells assessed as reduction in cell growth at 8 uM incubated for 72 hrs by CCK-8 assay relative to control; type: functional; settings: SMMC-7721, 72 h
A-375 [6] = assay: Antiproliferative activity against human A375 cells assessed as reduction in cell growth at 8 uM incubated for 72 hrs by CCK-8 assay relative to control; type: functional; settings: A-375, 72 h
SMMC-7721 [7] = assay: Antiproliferative activity against human SMMC7721 cells assessed as reduction in cell growth incubated for 72 hrs by CCK-8 assay; type: functional, cell-based; settings: SMMC-7721, 72 h
A549 [8] = assay: Antiproliferative activity against human A549 cells assessed as reduction in cell growth at 2 uM incubated for 72 hrs by CCK-8 assay relative to control; type: functional; settings: A549, 72 h
HeLa [9] = assay: Antiproliferative activity against human HeLa cells assessed as reduction in cell growth at 2 uM incubated for 72 hrs by CCK-8 assay relative to control; type: functional
HCT-116 [10] = assay: Antiproliferative activity against human HCT116 cells assessed as reduction in cell growth at 8 uM incubated for 72 hrs by CCK-8 assay relative to control; type: functional; settings: HCT-116, 72 h
SMMC-7721 [11] = assay: Antiproliferative activity against human SMMC7721 cells assessed as reduction in cell growth at 2 uM incubated for 72 hrs by CCK-8 assay relative to control; type: functional; settings: SMMC-7721, 72 h

Row | IC50 (SMMC-7721 [7]) [µM] | SMILES | inhibition at 8 µM (A549 [1]) [%] | inhibition at 2 µM (HCT-116 [2]) [%] | inhibition at 2 µM (A-375 [3]) [%] | inhibition at 8 µM (HeLa [4]) [%] | inhibition at 8 µM (SMMC-7721 [5]) [%] | inhibition at 8 µM (A-375 [6]) [%] | inhibition at 2 µM (A549 [8]) [%] | inhibition at 2 µM (HeLa [9]) [%] | inhibition at 8 µM (HCT-116 [10]) [%] | inhibition at 2 µM (SMMC-7721 [11]) [%]
1 | 3.56 | Cc1cccc2nc(SCc3ccc(/C=C/C(=O)Nc4ccccc4N)cc3)n(C)c(=O)c12 | 46 | 8.9 | 24.4 | 51.8 | 52.3 | 32.4 | 39.4 | 44.3 | 11.7 | 50.5
2 |  | Cn1c(SCc2ccc(/C=C/C(=O)Nc3ccccc3N)cc2)nc2cc(F)ccc2c1=O | 22.9 | 0.9 | 1.6 | 21.2 | 29.5 | 6.4 | 2.9 | 12.7 | 3.3 | 12.3
3 |  | CCn1c(SCc2ccc(C(=O)Nc3ccccc3N)cc2)nc2cc(F)ccc2c1=O | 56.5 | 5.3 | 8.4 | 31 | 20.4 | 10.3 | 54.4 | 25.7 | 64.3 | 0.8
4 |  | Nc1ccccc1NC(=O)c1ccc(CSc2nc3cc(Br)ccc3c(=O)n2-c2cccc(Cl)c2)cc1 | 36.4 | 11.3 | 17.4 | 67 | 21 | 32.9 | 35.6 | 55 | 31.3 | 10.5
5 |  | Cc1cccc2c(=O)n(C)c(SCc3ccc(/C=C/C(=O)Nc4ccccc4N)cc3)nc12 | 43.8 | 4.5 | 9.3 | 56.6 | 36.4 | 13.7 | 34 | 31.6 | 5.8 | 26.3
6 |  | CCn1c(SCc2ccc(/C=C/C(=O)Nc3ccccc3N)cc2)nc2cc(Cl)ccc2c1=O | 45.7 | 12.1 | 12 | 21.8 | 28.4 | 22.9 | 31.6 | 8.7 | 28.4 | 12.1
7 |  | Cn1c(SCc2ccc(/C=C/C(=O)Nc3ccccc3N)cc2)nc2cc(Br)ccc2c1=O | 14 | 9 | 4 | 30.3 | 15.2 | 6.3 | 1.9 | 17.7 | 19.4 | 13.2
8 |  | CCn1c(SCC(=O)Nc2ccccc2N)nc2cc(Cl)ccc2c1=O | 27.5 | 3.9 | 24.4 | 59.7 | 2.1 | 32.5 | 14.2 | 39.2 | 6.9 | 1.8
9 |  | CCn1c(SCc2ccc(C(=O)Nc3ccccc3N)cc2)nc2cc(OC)ccc2c1=O | 30.3 | 5 | 20 | 44 | 45.8 | 31.4 | 28 | 42.1 | 6.7 | 32.2
10 |  | COc1ccc2c(=O)n(-c3cccc(Cl)c3)c(SCC(=O)Nc3ccccc3N)nc2c1 | 28.2 | 3.9 | 3.2 | 38.5 | 38.1 | 43.3 | 13 | 27.8 | 6.6 | 24.6
11 |  | COc1ccc2c(=O)n(-c3cccc(Cl)c3)c(SCc3ccc(/C=C/C(=O)Nc4ccccc4N)cc3)nc2c1 | 37.2 | 2.1 | 5.4 | 24.9 | 5.1 | 8.9 | 4.1 | 16.3 | 12.7 | 0.7

— ChEMBL document CHEMBL4393680, “Design, synthesis and biological evaluation of novel thioquinazolinone-based 2-aminobenzamide derivatives as potent histone deacetylase (HDAC) inhibitors” (Eur J Med Chem, 2019)
